Experimental data published in PMC9658017, “Hydroxygenkwanin Improves the Efficacy of Cytotoxic Drugs in ABCG2-Overexpressing Multidrug-Resistant Cancer Cells” (International Journal of Molecular Sciences, 2022).
pEC50: −log10 of the molar value.

Biological target: T1, ABCG2 (Homo sapiens, UniProt Q9UNQ0)
T1 sequence (Q9UNQ0 1-655): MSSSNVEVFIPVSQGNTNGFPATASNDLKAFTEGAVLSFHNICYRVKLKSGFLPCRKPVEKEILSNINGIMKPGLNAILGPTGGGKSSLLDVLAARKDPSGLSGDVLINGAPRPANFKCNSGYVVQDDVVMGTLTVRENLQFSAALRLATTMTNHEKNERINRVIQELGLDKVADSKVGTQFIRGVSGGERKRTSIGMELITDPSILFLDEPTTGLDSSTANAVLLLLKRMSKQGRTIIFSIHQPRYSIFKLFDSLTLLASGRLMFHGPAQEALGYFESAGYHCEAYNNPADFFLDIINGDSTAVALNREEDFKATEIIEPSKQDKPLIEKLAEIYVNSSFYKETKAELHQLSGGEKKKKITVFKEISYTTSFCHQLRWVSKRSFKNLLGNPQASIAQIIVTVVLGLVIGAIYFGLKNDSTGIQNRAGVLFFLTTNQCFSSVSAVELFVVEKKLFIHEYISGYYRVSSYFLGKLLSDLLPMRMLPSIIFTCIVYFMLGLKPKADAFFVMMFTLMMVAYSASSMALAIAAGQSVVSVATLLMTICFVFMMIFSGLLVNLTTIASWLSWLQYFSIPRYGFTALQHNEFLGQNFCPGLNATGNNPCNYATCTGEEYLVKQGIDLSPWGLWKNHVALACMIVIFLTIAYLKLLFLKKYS
Assay: biochemical

**Q.** How did the pEC50 turn out when `COc1cc(O)c2c(=O)cc(-c3ccc(O)c(O)c3)oc2c1` [HGK, Hydroxygenkwanin] was run?
**A.** ~7.72
